This is an account of results in ChEMBL document CHEMBL1151969, “Melanin synthesis inhibitors from Lespedeza floribunda” (J Nat Prod, 2009).

The nature of data set [1]: Inhibition of melanin synthesis in NHEM cells assessed as [14C]thiouracil incorporation after 72 hrs by liquid scintillation counting. In kind it is functional, cell-based, Homo sapiens. The settings on record: Homo sapiens, NHEM, 72 h.
Data set [2] in a line: Cytotoxicity against NHEM cells assessed as cell viability after 72 hrs by WST-8 assay. The settings on record: human. In kind it is cell-based.

For `COc1ccc(-c2oc3c(CC=C(C)C)c(O)c(O)cc3c2C(=O)c2cc3c(c(CC=C(C)C)c2O)O[C@H]2c4ccc(O)c(CC=C(C)C)c4OC[C@@H]32)c(O)c1` [LESPEFLORIN J2], in data set [1], the IC50 is above 52.8 µM. Moreover, in data set [2], the Activity result is reported as “Non-toxic”.
As for `CC(C)=CCc1cc(-c2oc3c(CC=C(C)C)c(O)c(O)cc3c2C(=O)c2cc3c(c(CC=C(C)C)c2O)O[C@H]2c4cc(CC=C(C)C)c(O)cc4OC[C@@H]32)c(O)cc1O` [LESPEFLORIN J3], the IC50 in data set [1] turned out to be 37.7 µM. Also, the Activity entry in data set [2] is “Non-toxic”.
As to `COc1ccc(-c2oc3c(CC=C(C)C)c(O)c(O)cc3c2C(=O)c2cc3c(c(CC=C(C)C)c2O)O[C@H]2c4cc(CC=C(C)C)c(O)cc4OC[C@@H]32)c(O)c1` [LESPEFLORIN J4], the IC50 in data set [1] is above 52.8 µM. In data set [2], the Activity result is given as “Non-toxic”.
For `CC(C)=CCc1cc([C@@H]2CC(=O)c3c(cc(O)c(CC=C(C)C)c3O)O2)ccc1O` [MACARANGAFLAVANONE B], the half-inhibitory concentration (IC50) in data set [1] came to 2.59 µM. Further, the Activity entry in data set [2] is on record as “Non-toxic”.
The like results for `CC(C)=CCc1cc([C@@H]2CC(=O)c3cc(CC=C(C)C)c(O)c(CC=C(C)C)c3O2)ccc1O` [PROSTRATOL] were, in that order, 0.98 µM and “Non-toxic”.
